Laboratory results: ChEMBL document CHEMBL5303710, “ECBD screening data for assay EOS300044” (2022)

Target: Replicase polyprotein 1ab (Severe acute respiratory syndrome coronavirus 2) (UniProt P0DTD1)
Assay: Inhibition of SARS-CoV-2 3CL-Pro proteolytic cleavage of a dual-labeled substrate by FRET at 1mM DTT.
Assay type: functional
Set-up: assay stage

`CC(C)(C)OC(=O)NCCc1nnc(S(=O)(=O)Cc2ccc(Cl)cc2Cl)o1` was tested, and the IC50 relative was 7.29 µM.

In the case of `COc1cc(N(C)C)cc(CN(C)CCc2ccc([N+](=O)[O-])cc2)c1O`, the IC50 relative is reported as greater than 20 µM.

Molecule `Nc1nc(S)c2ncn(C3OC(CO)C(O)C3O)c2n1` (centres undefined) has an IC50 relative of 1.45 µM.

`S=C=Nc1cccc(NC(=S)NCCCCNC(=S)Nc2cccc(N=C=S)c2)c1` was tested, and the IC50 relative was greater than 20 µM.

With `Cc1cc(-c2ccc(/N=N/c3ccc4c(S(=O)(=O)O)cc(S(=O)(=O)O)c(N)c4c3O)c(C)c2)ccc1/N=N/c1ccc2c(S(=O)(=O)O)cc(S(=O)(=O)O)c(N)c2c1O` the IC50 relative was 0.0219 µM.

`CN(C)S(=O)(=O)c1cccc(-n2sc3ccccc3c2=O)c1` was tested, and the IC50 relative was less than 0.02 µM.

In the case of `O=c1c(O)cccc2cc(O)c(O)c(O)c12`, the IC50 relative is reported as greater than 20 µM.

`Cn1sc(=O)n(Cc2ccccc2)c1=O` gave an IC50 relative of less than 0.02 µM.

`COc1ncc(-c2ccc3nccc(-c4ccnnc4)c3c2)cc1NS(=O)(=O)c1ccc(F)cc1F` showed an IC50 relative greater than 20 µM.

`Sc1nnc(-c2ccccc2Cl)o1` was tested, and the IC50 relative was 7.71 µM.

Molecule `Cc1c(-c2ccc(N3CCc4cccc(C(=O)Nc5nc6ccccc6s5)c4C3)nc2C(=O)O)cnn1CC12CC3CC(CC(C3)C1)C2` has an IC50 relative greater than 20 µM.

Work on `Oc1cc2c(cc1O)C(c1ccccc1)CNCC2` (centres undefined) yielded an IC50 relative greater than 20 µM.

`O=C(NC(=S)N1CCCc2ccccc21)c1ccccc1` showed an IC50 relative greater than 20 µM.

In the case of `Cc1cc(-c2ccc(/C=C3/S/C(=N\c4ccc(Cl)c(C(=O)O)c4)NC3=O)o2)c([N+](=O)[O-])cc1C`, the IC50 relative is reported as greater than 20 µM.

`COc1ccc2[nH]c([S+]([O-])Cc3ncc(C)c(OC)c3C)nc2c1` (centres undefined) was tested, and the IC50 relative was greater than 20 µM.

Work on `O=c1cc(-c2ccccc2)oc2cc(O)c(O)c(O)c12` yielded an IC50 relative greater than 20 µM.

Work on `Cc1ccc(S(=O)(=O)N[C@@H](Cc2ccccc2)C(=O)CCl)cc1` yielded an IC50 relative of 0.839 µM.

For `O=C(CCl)c1ccccc1`, the IC50 relative was 0.246 µM.

Work on `O=C(Nc1ccccc1)Nc1ccc(-c2ccc(C(=O)[C@@H]3CCC[C@H]3C(=O)O)cc2)cc1` yielded an IC50 relative greater than 20 µM.

With `CN1CCN(C(=O)c2ccc(-c3ccc4c(C=O)c(O)ccc4c3)s2)CC1` the IC50 relative was 5.65 µM.

For `Cc1cc(C)cc(N2C(=O)CC(Sc3nc[nH]n3)C2=O)c1` (centres undefined), the IC50 relative was greater than 20 µM.

Molecule `O=C(c1ccc(Cl)cc1)c1cc([N+](=O)[O-])ccc1N1CCOCC1` has an IC50 relative greater than 20 µM.

Molecule `COc1ccnc(C[S+]([O-])c2nc3cc(OC(F)F)ccc3[nH]2)c1OC` (centres undefined) has an IC50 relative greater than 20 µM.

With `COc1ccc2[nH]c3c(S)ncnc3c2c1` the IC50 relative was greater than 20 µM.

`CCCCn1c(NC(=O)c2cccs2)c(C#N)c2nc3ccccc3nc21` gave an IC50 relative greater than 20 µM.

`Cc1ccc(C)c(-n2sc3cc(F)ccc3c2=O)c1` gave an IC50 relative of less than 0.02 µM.

In the case of `Cc1c(OCC(F)(F)F)ccnc1C[S+]([O-])c1nc2ccccc2[nH]1` (centres undefined), the IC50 relative is reported as greater than 20 µM.

`O=C(O)c1c(Cl)c(Cl)c(Cl)c(Cl)c1-c1c2cc(I)c(=O)c(I)c-2oc2c(I)c(O)c(I)cc12` showed an IC50 relative greater than 20 µM.

In the case of `O=C1C(Cl)=C(N2CCOCC2)C(=O)N1c1ccc(Cl)c(Cl)c1`, the IC50 relative is reported as greater than 20 µM.

Molecule `Oc1cc2c(cc1C(c1ccc(C(F)(F)F)cc1)N1CCOCC1)OCO2` (centres undefined) has an IC50 relative greater than 20 µM.

`O=C(O)[C@@H](S)[C@@H](S)C(=O)O` gave an IC50 relative of 0.0836 µM.

`CC1=CC(=O)c2ccccc2C1=O` showed an IC50 relative greater than 20 µM.

For `CCOC(=O)c1c(N)sc(-c2ccccc2)c1C`, the IC50 relative was 3.61 µM.

`O=C1C(Cl)=C(Cl)C(=O)C(Cl)=C1Cl` gave an IC50 relative of 0.183 µM.

`Cc1ccc(-n2sc3ccccc3c2=O)cc1` gave an IC50 relative of less than 0.02 µM.

Molecule `S=C=NCc1ccccc1` has an IC50 relative greater than 20 µM.

`COc1ccc2[nH]c(S)nc2c1` gave an IC50 relative greater than 20 µM.

Work on `c1ccc2sc(SSc3nc4ccccc4s3)nc2c1` yielded an IC50 relative of 0.537 µM.

`O=C(/C=C/c1ccc2ccccc2n1)c1ccncc1` was tested, and the IC50 relative was 0.191 µM.

With `Nc1ccc(O)c2ncccc12` the IC50 relative was greater than 20 µM.

Molecule `CCN(CC)S(=O)(=O)c1cccc(-n2sc3ccccc3c2=O)c1` has an IC50 relative of less than 0.02 µM.

In the case of `Sc1nnnn1-c1ccccc1`, the IC50 relative is reported as greater than 20 µM.

`O=C(CC1Sc2ncnn2C1=O)Nc1ccc(Br)cc1` (centres undefined) gave an IC50 relative greater than 20 µM.

`COC(=O)CC[C@H](NC(=O)[C@H](CC(=O)OC)NC(=O)OCc1ccccc1)C(=O)N[C@H](C(=O)N[C@@H](CC(=O)OC)C(=O)CF)C(C)C` was tested, and the IC50 relative was less than 0.02 µM.

Work on `O=[N+]([O-])c1ccc(Sc2cccc[n+]2[O-])c2nonc12` yielded an IC50 relative of 0.53 µM.

With `CC(Cc1ccc(O)c(O)c1)C(C)Cc1ccc(O)c(O)c1` (centres undefined) the IC50 relative was greater than 20 µM.

`CCOc1cc(C(Nc2cc(C)ccn2)c2ccc3cccnc3c2O)ccc1OC` (centres undefined) showed an IC50 relative greater than 20 µM.

For `NC(Cc1cc(O)c(O)cc1O)C(=O)O` (racemic), the IC50 relative was greater than 20 µM.

`Sc1nnc(Nc2ccccc2)s1` gave an IC50 relative greater than 20 µM.

Molecule `O=C(c1cccs1)c1no[n+]([O-])c1C(=O)c1cccs1` has an IC50 relative greater than 20 µM.

For `O=c1c2ccccc2sn1-c1ccccc1`, the IC50 relative was less than 0.02 µM.

`CCN1CCN(C(c2ccc(C(F)(F)F)cc2)c2ccc3cccnc3c2O)CC1` (centres undefined) was tested, and the IC50 relative was 1.34 µM.

`CCN(CC)C(=S)S` gave an IC50 relative greater than 20 µM.

`Cc1ccc(-n2sc(=O)n(Cc3ccc(F)cc3)c2=O)cc1` was tested, and the IC50 relative was 0.148 µM.
